The record followed here is ChEMBL document CHEMBL3044670, “Aromatic sulfonyl hydrazides and sulfonyl hydrazones: antimicrobial activity and physical properties” (2013).

The term MIC denotes the least concentration at which growth counts as inhibited. The low end stands for a more susceptible organism, the high end for a less susceptible organism.

≈ marks a conversion by molar mass, not a printed value.

Assay [1] has as its system Bacillus subtilis. Put plainly: Antibacterial activity against Bacillus subtilis ATCC 6633 at 140 ug/disk after 18 to 24 hr by disk diffusion method. The class given is functional. The settings on record: read-out: DIZ. Background: Agar diffusion results depend on both activity and mobility in agar.
The test system of assay [2] is Staphylococcus aureus. Put plainly: Antibacterial activity against Staphylococcus aureus ATCC 25923 at 140 ug/disc after 18 to 24 hr by disk diffusion method. In kind it is functional. The conditions noted are these: read-out: DIZ.
The subject of assay [3] is Pseudomonas fluorescens. Put plainly: Antibacterial activity against Pseudomonas fluorescens ATCC 49838 at 140 ug/disk after 18 to 24 hr by disk diffusion method. In kind it is functional. The conditions noted are these: read-out: DIZ.
Assay [4] relates to Klebsiella aerogenes. Put plainly: Antibacterial activity against Enterobacter aerogenes ATCC 13048 at 140 ug/disk after 18 to 24 hr by disk diffusion method. In kind it is functional. The conditions noted are these: read-out: DIZ.
Assay [5] relates to Staphylococcus aureus. Nature of the assay: Antibacterial activity against Staphylococcus aureus ATCC 25923 after 18 to 24 hr by broth microdilution method. The class given is functional. (In broth dilution the organism is exposed to a series of concentrations in liquid medium.)
The subject of assay [6] is Enterococcus faecalis. Put plainly: Antibacterial activity against Enterococcus faecalis ATCC 29212 after 18 to 24 hr by broth microdilution method. In kind it is functional.
Assay [7] has as its system Pseudomonas fluorescens. Put plainly: Antibacterial activity against Pseudomonas fluorescens ATCC 49838 after 18 to 24 hr by broth microdilution method. The class given is functional.
For assay [8], the system named is Bacillus cereus. Put plainly: Antibacterial activity against Bacillus cereus ATCC 11778 after 18 to 24 hr by broth microdilution method. The class given is functional.
The subject of assay [9] is Bacillus cereus. Nature of the assay: Antibacterial activity against Bacillus cereus ATCC 11778 at 140 ug/disk after 18 to 24 hr by disk diffusion method. The conditions noted are these: read-out: DIZ. The class given is functional.
Assay [10] deals with Staphylococcus epidermidis. Put plainly: Antibacterial activity against Staphylococcus epidermidis ATCC 12228 after 18 to 24 hr by broth microdilution method. In kind it is functional.
Assay [11] deals with Staphylococcus epidermidis. Put plainly: Antibacterial activity against Staphylococcus epidermidis ATCC 12228 at 140 ug/disk after 18 to 24 hr by disk diffusion method. In kind it is functional. The settings on record: read-out: DIZ.
In assay [12] the test system is Enterococcus faecalis. Nature of the assay: Antibacterial activity against Enterococcus faecalis ATCC 29212 at 140 ug/disk after 18 to 24 hr by disk diffusion method. The class given is functional. The settings on record: read-out: DIZ.
The test system of assay [13] is Pseudomonas aeruginosa. Nature of the assay: Antibacterial activity against Pseudomonas aeruginosa ATCC 27853 after 18 to 24 hr by broth microdilution method. The class given is functional.
In assay [14] the test system is Candida albicans. Put plainly: Antifungal activity against Candida albicans ATCC 90028 at 140 ug/disk after 18 to 24 hr by disk diffusion method. The class given is functional. The conditions noted are these: read-out: DIZ.
Assay [15] relates to Klebsiella aerogenes. Put plainly: Antibacterial activity against Enterobacter aerogenes ATCC 13048 after 18 to 24 hr by broth microdilution method. In kind it is functional.
Assay [16] relates to Escherichia coli. Nature of the assay: Antibacterial activity against Escherichia coli ATCC 25922 at 140 ug/disk after 18 to 24 hr by disk diffusion method. The class given is functional. The settings on record: read-out: DIZ.
The test system of assay [17] is Escherichia coli. Nature of the assay: Antibacterial activity against Escherichia coli ATCC 25922 after 18 to 24 hr by broth microdilution method. In kind it is functional.
For assay [18], the system named is Candida albicans. Put plainly: Antifungal activity against Candida albicans ATCC 90028 after 18 to 24 hr by broth microdilution method. In kind it is functional.
In assay [19] the test system is Klebsiella pneumoniae. Nature of the assay: Antibacterial activity against Klebsiella pneumoniae ATCC 13883 after 18 to 24 hr by broth microdilution method. In kind it is functional.
Assay [20] concerns Pseudomonas aeruginosa. Nature of the assay: Antibacterial activity against Pseudomonas aeruginosa ATCC 27853 at 140 ug/disk after 18 to 24 hr by disk diffusion method. In kind it is functional. The conditions noted are these: read-out: DIZ.
The subject of assay [21] is Klebsiella pneumoniae. Nature of the assay: Antibacterial activity against Klebsiella pneumoniae ATCC 13883 at 140 ug/disk after 18 to 24 hr by disk diffusion method. The class given is functional. The conditions noted are these: read-out: DIZ.
In assay [22] the test system is Bacillus subtilis. Nature of the assay: Antibacterial activity against Bacillus subtilis ATCC 6633 after 18 to 24 hr by broth microdilution method. In kind it is functional.
The subject of assay [23] is Candida albicans. Nature of the assay: microbe, parasite or virus in culture. The conditions noted are these: ATCC 90028, read-out: DIZ.
Description: Antifungal activity against Candida albicans ATCC 90028 at 40 ug/disk after 18 to 24 hr by disk diffusion method
The subject of assay [24] is Pseudomonas fluorescens. Nature of the assay: Antibacterial activity against Pseudomonas fluorescens ATCC 49838 at 40 ug/disk after 18 to 24 hr by disk diffusion method. The class given is functional. The settings on record: read-out: DIZ.
The test system of assay [25] is Klebsiella pneumoniae. Nature of the assay: Antibacterial activity against Klebsiella pneumoniae ATCC 13883 at 40 ug/disk after 18 to 24 hr by disk diffusion method. In kind it is functional. The settings on record: read-out: DIZ.
Assay [26] concerns Bacillus cereus. Put plainly: Antibacterial activity against Bacillus cereus ATCC 11778 at 40 ug/disk after 18 to 24 hr by disk diffusion method. The class given is functional. The conditions noted are these: read-out: DIZ.
The test system of assay [27] is Staphylococcus aureus. Put plainly: Antibacterial activity against Staphylococcus aureus ATCC 25923 at 40 ug/disc after 18 to 24 hr by disk diffusion method. The class given is functional. The settings on record: read-out: DIZ.
In assay [28] the test system is Pseudomonas aeruginosa. Nature of the assay: Antibacterial activity against Pseudomonas aeruginosa ATCC 27853 at 40 ug/disk after 18 to 24 hr by disk diffusion method. The class given is functional. The settings on record: read-out: DIZ.
The test system of assay [29] is Klebsiella aerogenes. Nature of the assay: Antibacterial activity against Enterobacter aerogenes ATCC 13048 at 40 ug/disk after 18 to 24 hr by disk diffusion method. The settings on record: read-out: DIZ. In kind it is functional.
Assay [30] relates to Staphylococcus epidermidis. Put plainly: Antibacterial activity against Staphylococcus epidermidis ATCC 12228 at 40 ug/disk after 18 to 24 hr by disk diffusion method. The settings on record: read-out: DIZ. In kind it is functional.
For assay [31], the system named is Escherichia coli. Nature of the assay: Antibacterial activity against Escherichia coli ATCC 25922 at 40 ug/disk after 18 to 24 hr by disk diffusion method. The class given is functional. The conditions noted are these: read-out: DIZ.
In assay [32] the test system is Enterococcus faecalis. Nature of the assay: Antibacterial activity against Enterococcus faecalis ATCC 29212 at 40 ug/disk after 18 to 24 hr by disk diffusion method. The settings on record: read-out: DIZ. The class given is functional.
In assay [33] the test system is Bacillus subtilis. Nature of the assay: Antibacterial activity against Bacillus subtilis ATCC 6633 at 40 ug/disk after 18 to 24 hr by disk diffusion method. The class given is functional. The conditions noted are these: read-out: DIZ.

Regarding `CN(N)S(=O)(=O)c1ccccc1`, the zone of inhibition at 140 µg/disc in the assay on Bacillus subtilis [1] is 16 mm; in the assay on Staphylococcus aureus [2], 19 mm; in the assay with Pseudomonas fluorescens [3], 22 mm; in the assay with Klebsiella aerogenes [4], 16 mm; in the assay with Bacillus cereus [9], 15 mm; in [11], 14 mm. For the same compound, the zone of inhibition at 140 µg/disc in the assay on Enterococcus faecalis [12] worked out at 15 mm; in the assay with Candida albicans [14], 0 mm; in the assay with Escherichia coli [16], 18 mm; in the assay with Pseudomonas aeruginosa [20], 19 mm; in the assay on Klebsiella pneumoniae [21] it was 17 mm. Besides, the MIC is 125 µg/mL (≈ 671 µM) in the assay with Staphylococcus aureus [5]; 250 µg/mL (≈ 1340 µM) in the assay on Enterococcus faecalis [6]; 62.5 µg/mL (≈ 336 µM) in the assay on Pseudomonas fluorescens [7]; 125 µg/mL (≈ 671 µM) in the assay with Bacillus cereus [8]; 125 µg/mL (≈ 671 µM) in [10]; 62.5 µg/mL (≈ 336 µM) against Pseudomonas aeruginosa [13]. Also, the MIC against Klebsiella aerogenes [15] was 125 µg/mL (≈ 671 µM); with Escherichia coli [17], 125 µg/mL (≈ 671 µM); in the assay with Candida albicans [18] it was > 2000 µg/mL; against Klebsiella pneumoniae [19] it was 125 µg/mL (≈ 671 µM); in the assay with Bacillus subtilis [22], 125 µg/mL (≈ 671 µM).

For the compound `CN(/N=C/c1cccs1)S(=O)(=O)c1ccccc1`, the zone of inhibition at 140 µg/disc in the assay with Bacillus subtilis [1] came to 24 mm; with Staphylococcus aureus [2], 12 mm; in the assay on Pseudomonas fluorescens [3], 25 mm; with Klebsiella aerogenes [4], 17 mm; in the assay on Bacillus cereus [9] it was 25 mm; in assay [11] it was 15 mm. Moreover, the zone of inhibition at 140 µg/disc in the assay with Enterococcus faecalis [12] is 0 mm; in the assay with Candida albicans [14], 0 mm; with Escherichia coli [16], 17 mm; with Pseudomonas aeruginosa [20] it was 24 mm; with Klebsiella pneumoniae [21] it was 21 mm. Moreover, the MIC in the assay on Staphylococcus aureus [5] was 250 µg/mL (≈ 892 µM); in the assay on Enterococcus faecalis [6] it was 1000 µg/mL (≈ 3570 µM); against Pseudomonas fluorescens [7], 125 µg/mL (≈ 446 µM); in the assay on Bacillus cereus [8], 250 µg/mL (≈ 892 µM); in assay [10], 125 µg/mL (≈ 446 µM); against Pseudomonas aeruginosa [13], 125 µg/mL (≈ 446 µM). Further, the minimum inhibitory concentration (MIC) was found to be 250 µg/mL (≈ 892 µM) against Klebsiella aerogenes [15]; 125 µg/mL (≈ 446 µM) against Escherichia coli [17]; 1000 µg/mL (≈ 3570 µM) with Candida albicans [18]; 125 µg/mL (≈ 446 µM) with Klebsiella pneumoniae [19]; 125 µg/mL (≈ 446 µM) against Bacillus subtilis [22].

As to `Clc1ccc(COC(Cn2ccnc2)c2ccc(Cl)cc2Cl)c(Cl)c1` (stereo unspecified) [MICONAZOLE], the zone of inhibition at 40 µg/disc in the assay on Candida albicans [23] amounted to 26 mm; in the assay on Pseudomonas fluorescens [24], 0 mm; in the assay on Klebsiella pneumoniae [25] it was 0 mm; with Bacillus cereus [26], 0 mm; in the assay on Staphylococcus aureus [27] it was 0 mm; with Pseudomonas aeruginosa [28], 0 mm. For the same compound, the zone of inhibition at 40 µg/disc (with Klebsiella aerogenes [29]; in [30]; in the assay with Escherichia coli [31]; with Enterococcus faecalis [32]; in the assay on Bacillus subtilis [33]) was 0 mm throughout. For the same compound, the MIC in the assay with Candida albicans [18] is 0.15 µg/mL (≈ 0.36 µM).
